Experimental data from PubChem BioAssay (NCI).
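Dose response: 5 concentrations. Exposure: 48 h. Format: 96-well plates. Endpoint: linear interpolation; highest concentration if not reached. TGI: concentration producing complete growth inhibition.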

Tests used:
Test in all cases: NCI tumour cell line growth inhibition, 48 h
A549 NSCLC = tested on: A549 NSCLC
SF-268 CNS = tested on: SF-268 CNS
SF-295 CNS = tested on: SF-295 CNS
HT29 colon = tested on: HT29 colon
LOX IMVI melanoma = tested on: LOX IMVI melanoma
T-47D breast = tested on: T-47D breast
NCI-H23 lung = tested on: NCI-H23 lung
COLO 205 colon = tested on: COLO 205 colon
HL-60(TB) leukemia = tested on: HL-60(TB) leukemia
DU-145 prostate = tested on: DU-145 prostate
OVCAR-3 ovarian = tested on: OVCAR-3 ovarian
UACC-62 melanoma = tested on: UACC-62 melanoma
SNB-75 CNS = tested on: SNB-75 CNS
U251 CNS = tested on: U251 CNS
OVCAR-4 ovarian = tested on: OVCAR-4 ovarian
SK-MEL-28 melanoma = tested on: SK-MEL-28 melanoma
SN12C renal = tested on: SN12C renal
KM12 colon = tested on: KM12 colon
NCI/ADR-RES ovarian = tested on: NCI/ADR-RES ovarian
IGROV1 ovarian = tested on: IGROV1 ovarian
SK-MEL-5 melanoma = tested on: SK-MEL-5 melanoma
HOP-92 NSCLC = tested on: HOP-92 NSCLC
TK-10 renal = tested on: TK-10 renal
MDA-MB-435 = tested on: MDA-MB-435
MOLT-4 leukemia = tested on: MOLT-4 leukemia
A498 renal = tested on: A498 renal
RXF 393 renal = tested on: RXF 393 renal
CAKI-1 renal = tested on: CAKI-1 renal
NCI-H522 lung = tested on: NCI-H522 lung
ACHN renal = tested on: ACHN renal
EKVX NSCLC = tested on: EKVX NSCLC
786-0 renal = tested on: 786-0 renal
UO-31 renal = tested on: UO-31 renal
HCC-2998 colon = tested on: HCC-2998 colon
SK-OV-3 ovarian = tested on: SK-OV-3 ovarian
RPMI-8226 leukemia = tested on: RPMI-8226 leukemia
SK-MEL-2 melanoma = tested on: SK-MEL-2 melanoma
MCF7 breast = tested on: MCF7 breast
OVCAR-8 ovarian = tested on: OVCAR-8 ovarian
MDA-MB-231 breast = tested on: MDA-MB-231 breast
HCT-15 colon = tested on: HCT-15 colon
OVCAR-5 ovarian = tested on: OVCAR-5 ovarian
SW-620 colon = tested on: SW-620 colon
MALME-3M melanoma = tested on: MALME-3M melanoma
M14 melanoma = tested on: M14 melanoma
HS 578T breast = tested on: HS 578T breast
HCT-116 colon = tested on: HCT-116 colon
NCI-H226 lung = tested on: NCI-H226 lung
MDA-N = tested on: MDA-N
NCI-H460 lung = tested on: NCI-H460 lung
BT-549 breast = tested on: BT-549 breast
HOP-62 NSCLC = tested on: HOP-62 NSCLC
SF-539 CNS = tested on: SF-539 CNS
CCRF-CEM leukemia = tested on: CCRF-CEM leukemia
UACC-257 melanoma = tested on: UACC-257 melanoma
SNB-19 CNS = tested on: SNB-19 CNS
PC-3 prostate = tested on: PC-3 prostate
K-562 leukemia = tested on: K-562 leukemia
SR leukemia = tested on: SR leukemia

## CC1=NNC(=O)[C@H]2[C@H]1CCC1[C@@H]2CC[C@]2(C)[C@@H](O)CC[C@@H]12 (some centres undefined)
A549 NSCLC
  TGI: > 100 µM
SF-268 CNS
  TGI: > 100 µM
SF-295 CNS
  TGI: > 100 µM
HT29 colon
  TGI: > 100 µM
LOX IMVI melanoma
  TGI: > 100 µM
T-47D breast
  TGI: > 100 µM
NCI-H23 lung
  TGI: > 100 µM
COLO 205 colon
  TGI: > 100 µM
HL-60(TB) leukemia
  TGI: > 100 µM
DU-145 prostate
  TGI: > 100 µM
OVCAR-3 ovarian
  TGI: > 100 µM
UACC-62 melanoma
  TGI: > 100 µM
SNB-75 CNS
  TGI: > 100 µM
U251 CNS
  TGI: > 100 µM
OVCAR-4 ovarian
  TGI: > 100 µM
SK-MEL-28 melanoma
  TGI: > 100 µM
SN12C renal
  TGI: > 100 µM
KM12 colon
  TGI: > 100 µM
NCI/ADR-RES ovarian
  TGI: > 100 µM
IGROV1 ovarian
  TGI: > 100 µM
SK-MEL-5 melanoma
  TGI: > 100 µM
HOP-92 NSCLC
  TGI: > 100 µM
TK-10 renal
  TGI: > 100 µM
MDA-MB-435
  TGI: > 100 µM
MOLT-4 leukemia
  TGI: > 100 µM
A498 renal
  TGI: > 100 µM
RXF 393 renal
  TGI: > 100 µM
CAKI-1 renal
  TGI: > 100 µM
NCI-H522 lung
  TGI: > 100 µM
ACHN renal
  TGI: > 100 µM
EKVX NSCLC
  TGI: > 100 µM
786-0 renal
  TGI: > 100 µM
UO-31 renal
  TGI: > 100 µM
HCC-2998 colon
  TGI: > 100 µM
SK-OV-3 ovarian
  TGI: > 100 µM
RPMI-8226 leukemia
  TGI: > 100 µM
SK-MEL-2 melanoma
  TGI: > 100 µM
MCF7 breast
  TGI: > 100 µM
OVCAR-8 ovarian
  TGI: > 100 µM
MDA-MB-231 breast
  TGI: > 100 µM
HCT-15 colon
  TGI: > 100 µM
OVCAR-5 ovarian
  TGI: > 100 µM
SW-620 colon
  TGI: > 100 µM
MALME-3M melanoma
  TGI: > 100 µM
M14 melanoma
  TGI: > 100 µM
HS 578T breast
  TGI: > 100 µM
HCT-116 colon
  TGI: > 100 µM
NCI-H226 lung
  TGI: > 100 µM
MDA-N
  TGI: > 100 µM
NCI-H460 lung
  TGI: > 100 µM
BT-549 breast
  TGI: > 100 µM
HOP-62 NSCLC
  TGI: > 100 µM
SF-539 CNS
  TGI: > 100 µM
CCRF-CEM leukemia
  TGI: > 100 µM
UACC-257 melanoma
  TGI: > 100 µM
SNB-19 CNS
  TGI: > 100 µM
PC-3 prostate
  TGI: > 100 µM
K-562 leukemia
  TGI: > 100 µM

## COC(=O)[C@]1(C)CCCC2(C)C3=C(CCC21)CC1(CC3)SCCS1 (some centres undefined)
A549 NSCLC
  TGI: > 10 µM
SF-268 CNS
  TGI: > 10 µM
HT29 colon
  TGI: > 10 µM
T-47D breast
  TGI: > 10 µM
NCI-H23 lung
  TGI: > 10 µM
COLO 205 colon
  TGI: > 10 µM
HL-60(TB) leukemia
  TGI: > 10 µM
DU-145 prostate
  TGI: > 10 µM
OVCAR-3 ovarian
  TGI: > 10 µM
UACC-62 melanoma
  TGI: > 10 µM
SNB-75 CNS
  TGI: > 10 µM
U251 CNS
  TGI: > 10 µM
OVCAR-4 ovarian
  TGI: > 10 µM
SK-MEL-28 melanoma
  TGI: > 10 µM
SN12C renal
  TGI: > 10 µM
KM12 colon
  TGI: > 10 µM
NCI/ADR-RES ovarian
  TGI: > 10 µM
IGROV1 ovarian
  TGI: > 10 µM
SK-MEL-5 melanoma
  TGI: > 10 µM
HOP-92 NSCLC
  TGI: > 10 µM
TK-10 renal
  TGI: > 10 µM
MDA-MB-435
  TGI: > 10 µM
MOLT-4 leukemia
  TGI: > 10 µM
A498 renal
  TGI: > 10 µM
CAKI-1 renal
  TGI: > 10 µM
NCI-H522 lung
  TGI: > 10 µM
ACHN renal
  TGI: > 10 µM
EKVX NSCLC
  TGI: > 10 µM
786-0 renal
  TGI: > 10 µM
HCC-2998 colon
  TGI: > 10 µM
SK-OV-3 ovarian
  TGI: > 10 µM
RPMI-8226 leukemia
  TGI: > 10 µM
MCF7 breast
  TGI: > 10 µM
OVCAR-8 ovarian
  TGI: > 10 µM
MDA-MB-231 breast
  TGI: > 10 µM
HCT-15 colon
  TGI: > 10 µM
SW-620 colon
  TGI: > 10 µM
MALME-3M melanoma
  TGI: > 10 µM
M14 melanoma
  TGI: > 10 µM
HS 578T breast
  TGI: > 10 µM
HCT-116 colon
  TGI: > 10 µM
MDA-N
  TGI: > 10 µM
BT-549 breast
  TGI: > 10 µM
HOP-62 NSCLC
  TGI: > 10 µM
SF-539 CNS
  TGI: > 10 µM
CCRF-CEM leukemia
  TGI: > 10 µM
SR leukemia
  TGI: > 10 µM
UACC-257 melanoma
  TGI: > 10 µM
SNB-19 CNS
  TGI: > 10 µM
PC-3 prostate
  TGI: > 10 µM
K-562 leukemia
  TGI: > 10 µM
